# Results taken from patent US9133140B2, “Cycloalkylamne derivatives” (Daiichi Sankyo Company, Limited, priority 2008, dated 2015).
# Where a name gives a salt, the structure may show the parent alone.
# Target: T1, human CaSR (Homo sapiens, UniProt P41180)
# T1 construct: TT cells are cell lines that express human CaSR; endogenous in cells; host or cells: TT cells (human medullary thyroid carcinoma cell line)
# T1 sequence (P41180 20-1078): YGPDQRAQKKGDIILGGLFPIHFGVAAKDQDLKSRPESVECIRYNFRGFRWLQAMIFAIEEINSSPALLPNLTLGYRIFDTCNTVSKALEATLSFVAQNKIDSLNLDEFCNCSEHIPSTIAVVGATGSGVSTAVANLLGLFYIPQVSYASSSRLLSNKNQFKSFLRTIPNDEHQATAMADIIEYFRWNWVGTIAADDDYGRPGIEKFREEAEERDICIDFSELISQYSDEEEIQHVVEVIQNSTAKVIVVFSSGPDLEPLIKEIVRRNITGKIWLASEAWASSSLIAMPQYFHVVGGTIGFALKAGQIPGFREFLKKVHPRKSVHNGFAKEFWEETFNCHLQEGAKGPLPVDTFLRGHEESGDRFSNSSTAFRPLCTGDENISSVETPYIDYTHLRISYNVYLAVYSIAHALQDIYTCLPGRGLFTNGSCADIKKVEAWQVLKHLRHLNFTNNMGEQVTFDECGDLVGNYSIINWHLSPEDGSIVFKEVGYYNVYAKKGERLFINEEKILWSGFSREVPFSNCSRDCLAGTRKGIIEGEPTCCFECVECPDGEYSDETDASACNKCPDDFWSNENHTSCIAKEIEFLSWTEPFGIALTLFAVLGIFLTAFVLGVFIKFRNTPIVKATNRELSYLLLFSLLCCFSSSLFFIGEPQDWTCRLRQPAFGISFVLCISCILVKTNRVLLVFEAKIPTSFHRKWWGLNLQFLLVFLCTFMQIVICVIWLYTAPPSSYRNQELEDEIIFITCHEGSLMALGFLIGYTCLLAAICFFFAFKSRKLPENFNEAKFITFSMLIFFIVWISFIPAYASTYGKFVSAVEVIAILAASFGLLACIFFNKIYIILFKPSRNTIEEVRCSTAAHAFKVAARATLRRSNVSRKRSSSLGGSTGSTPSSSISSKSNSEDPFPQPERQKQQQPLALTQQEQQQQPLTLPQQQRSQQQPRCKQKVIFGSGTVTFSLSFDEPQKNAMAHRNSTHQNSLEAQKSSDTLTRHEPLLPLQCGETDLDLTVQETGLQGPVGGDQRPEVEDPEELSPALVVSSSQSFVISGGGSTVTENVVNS
# Assay: Human CaSR activity measurement test (intracellular calcium in TT cells)
# Format: cell-based
# Details: [EC50 of test compound]/[EC50 of Compound A], intracellular calcium fluorescence
# Method: It is reported that human medullary thyroid carcinoma cell lines TT cells are cell lines that express human CaSR, and when CaSR is activated by extracellular calcium ions or the like, intracellular calcium ion concentration increases (Endocrinology 137: 3842-3848, 1996). Accordingly, an activating action of the test compounds with respect to human CaSR was evaluated by using the change in intracellular calcium concentration of TT cells as an indicator. TT cells were inoculated onto a black well/clear bottom 96 well plate (poly-D-lysine coat: manufactured by BD biosciences), and were cultured for approximately 24 hours in a F-12 Nutrient Mixture (Kaighn's modification) culture media containing 10% calf serum and 0.5% antibiotic antimycotic. […] Then, the plate was allowed to stand for 1 hour at 37° C. Subsequently, the above-mentioned plate was placed onto FlexStation (manufactured by Molecular Device) or FlexStation 3 (manufactured by Molecular Device), and fluorescence intensity before and after treatment with the test compound dissolved in a buffer for measurement (126 mM NaCl, 4 mM KCl, 1 mM MgCl2, 20 mM HEPES (pH 7.4), 5.6 mM glucose, 2 mM CaCl2) was measured. […] Nagano, Pharmacol. […] WO 1996/12697) as a comparative compound, by conducting a similar procedure. From the following equation, the human CaSR activity of each of the test compounds was calculated as the relative activity with respect to Compound A. Relative activity with respect to Compound A=[EC50 of test compound]/[EC50 of Compound A]
row,SMILES,Relative activity with respect to Compound A
1,"C[C@@H](N[C@H]1CC[C@@H](c2ccc(C(=O)NCC(=O)O)cc2)C1)c1cccc2ccccc12 [Example 5, N-{4-[(1R,3S)-3-{[(1R)-1-(Naphthalen-1-yl)ethyl]amino}cyclopentyl]benzoylglycine hydrochloride]",0.52
2,"C[C@@H](N[C@H]1CC[C@@H](c2ccc(CCC(=O)O)cc2)C1)c1cccc2ccccc12 [Example 9, 3-{4-(1R,3S)-3-{[(1R)-1-(Naphthalen-1-yl)ethyl]amino}cyclopentyl]phenyl}propanoic acid hydrochloride]",0.38
3,"C[C@@H](N[C@H]1CC[C@H](c2ccc(CCC(=O)O)cc2)C1)c1cccc2ccccc12 [Example 29, 3-{4-[(1S,3S)-3-[(1R)-1-(4-Naphthalen-1-yl)ethyl]amino}cyclopentyl]phenyl}propanoic acid hydrochloride]",0.30
4,"C[C@@H](N[C@H]1CC[C@@H](c2ccc(SCC(=O)O)cc2)C1)c1ccc(F)c2ccccc12 [Example 37, ({4-[(1R,3S)-3-{[(1R)-1-(4-Fluoronaphthalen-1-yl)ethyl]amino}cyclopentyl]phenyl}thio)acetic acid hydrochloride]",0.10
5,"C[C@@H](N[C@H]1CC[C@@H](c2ccc(OCc3nn[nH]n3)cc2)C1)c1cccc2ccccc12 [Example 38, (1S,3R)-N-[(1R)-1-(Naphthalen-1-yl)ethyl]-3-[4-(2H-tetrazol-5-ylmethoxy)phenyl]cyclopentanamine hydrochloride]",0.13

# More lines, now with the values ahead:
row,Relative activity with respect to Compound A,SMILES
1,0.30,"C[C@@H](N[C@H]1CC[C@@H](c2cccc(-c3nn[nH]n3)c2)C1)c1cccc2ccccc12 [Example 1, (1S,3R)-N-[(1R)-1-(Naphthalen-1-yl)ethyl]-3-[3-(2H-tetrazol-5-yl)phenyl]cyclopentanamine hydrochloride]"
2,0.33,"C[C@@H](NC1CC[C@H](c2ccc(-c3nn[nH]n3)cc2)C1)c1cccc2ccccc12 (stereo partly drawn) [Example 4, (3S)-N-[(1R)-1-(Naphthalen-1-yl)ethyl]-3-[4-(2H-tetrazol-5-yl)phenyl]cyclopentanamine hydrochloride]"
3,0.36,"C[C@@H](N[C@H]1CC[C@@H](c2cccc(OCC(=O)O)c2)C1)c1cccc2ccccc12 [Example 12, {3-[(1R,3S)-3-{[(1R)-1-(Naphthalen-1-yl)ethyl]amino}cyclopentyl]phenoxy}acetic acid hydrochloride]"
4,0.42,"Cc1ccc([C@@H](C)NC2CC[C@@H](c3ccc(OCC(=O)O)cc3)C2)c2ccccc12 (stereo partly drawn) [Example 22, {4-[(1R)-3-{[(1R)-1-(4-Methylnaphthalen-1-yl)ethyl]amino}cyclopentyl]phenoxy}acetic acid]"
5,0.27,"C[C@@H](N[C@H]1CC[C@@H](c2ccc(-c3nn[nH]n3)cc2)C1)c1ccc(F)c2ccccc12 [Example 26, (1S,3R)-N-[(1R)-1-(4-Fluoronaphthalen-1-yl)ethyl]-3-[4-(2H-tetrazol-5-yl)phenyl]cyclopentanamine hydrochloride]"
6,0.26,"Cc1cc([C@@H]2CC[C@H](N[C@H](C)c3cccc4ccccc34)C2)ccc1OCC(=O)O [Example 32, {2-Methyl-4-[(1R,3S)-3-{[(1R)-1-(naphthalen-1-yl)ethyl]amino}cyclopentyl]phenoxy}acetic acid hydrochloride]"
7,0.07,"C[C@@H](N[C@H]1CC[C@@H](c2ccc(OCc3nn[nH]n3)cc2)C1)c1ccc(F)c2ccccc12 [Example 39, (1S,3R)-N-[(1R)-1-(4-Fluoronaphthalen-1-yl)ethyl]-3-[4-(2H-tetrazol-5-ylmethoxy)phenyl]cyclopentanamine hydrochloride]"
